Data from PubChem BioAssay AID256 (DTP/NCI, 2004).
Several values for one entry are separate records, joined by “and”; a condition that tells them apart may be missing. Equal values may be shown once. Toxic doses and inconclusive results are not listed.

Tested on: CD2F1 mice, L1210 leukemia ip, survival T/C
Test: NCI In Vivo Anticancer Drug Screen. Data for tumor model L1210 Leukemia (intraperitoneal) in CD2F1 (CDF1) mice
Conditions: higher = longer survival
Method in brief: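 In this screen, transplantable tumors were grown in mice given either the compound or its vehicle. Results were expressed as the treated measurement relative to the control measurement.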

[1] = endpoint: mean survival time, dose: 100.0 mg/kg/injection, schedule: Q01DX001 (ip), vehicle: saline
[2] = endpoint: mean survival time, dose: 200.0 mg/kg/injection, schedule: Q01DX001 (ip), vehicle: saline
[3] = endpoint: mean survival time, dose: 400.0 mg/kg/injection, schedule: Q01DX001 (ip), vehicle: saline
[4] = endpoint: mean survival time, dose: 100.0 mg/kg/injection, schedule: Q01DX009 (ip), vehicle: saline with Tween-80
[5] = endpoint: mean survival time, dose: 100.0 mg/kg/injection, schedule: Q04DX003 (ip), vehicle: saline with Tween-80
[6] = endpoint: mean survival time, dose: 200.0 mg/kg/injection, schedule: Q01DX009 (ip), vehicle: saline with Tween-80
[7] = endpoint: mean survival time, dose: 200.0 mg/kg/injection, schedule: Q04DX003 (ip), vehicle: saline with Tween-80
[8] = endpoint: mean survival time, dose: 400.0 mg/kg/injection, schedule: Q01DX009 (ip), vehicle: saline with Tween-80
[9] = endpoint: mean survival time, dose: 400.0 mg/kg/injection, schedule: Q04DX003 (ip), vehicle: saline with Tween-80
[10] = endpoint: mean survival time, dose: 100.0 mg/kg/injection, schedule: Q04DX002 (ip), vehicle: saline with Tween-80
[11] = endpoint: mean survival time, dose: 200.0 mg/kg/injection, schedule: Q04DX002 (ip), vehicle: saline with Tween-80
[12] = endpoint: mean survival time, dose: 400.0 mg/kg/injection, schedule: Q04DX002 (ip), vehicle: saline with Tween-80

Compound: O=c1nc(N2CCCCCC2)ccn1C1OC(CO)C(O)C1O (stereo unspecified)
- T/C (endpoint: median survival time, dose: 12.5 mg/kg/injection, schedule: Q01DX005 (ip), vehicle: distilled water + Tween-80): 101 % of control
- T/C (endpoint: median survival time, dose: 25.0 mg/kg/injection, schedule: Q01DX005 (ip), vehicle: distilled water + Tween-80): 107 % of control
- T/C (endpoint: median survival time, dose: 50.0 mg/kg/injection, schedule: Q01DX005 (ip), vehicle: distilled water + Tween-80): 98 % of control
- T/C (endpoint: median survival time, dose: 100.0 mg/kg/injection, schedule: Q01DX005 (ip), vehicle: distilled water + Tween-80): 104 % of control
- T/C (endpoint: median survival time, dose: 200.0 mg/kg/injection, schedule: Q01DX005 (ip), vehicle: distilled water + Tween-80): 106 % of control

Compound: CC(C)(O)C(=NCc1ccccc1)c1ccccc1
- T/C [1]: 102 % of control
- T/C [2]: 93 % of control
- T/C [3]: 104 % of control

Compound: C(=C1c2ccccc2-c2ccccc21)c1cccnc1
- T/C [4]: 98 % of control
- T/C [5]: 101 % of control
- T/C [6]: 102 % of control
- T/C [7]: 101 % of control
- T/C [8]: 88 % of control
- T/C [9]: 95 % of control

Compound: c1cc2n(n1)CCN2
- T/C (endpoint: mean survival time, dose: 8.0 mg/kg/injection, schedule: Q03HX008 (ip), vehicle: saline): 95 % of control
- T/C (endpoint: mean survival time, dose: 8.0 mg/kg/injection, schedule: Q03HX016 (ip), vehicle: saline): 96 % of control
- T/C (endpoint: mean survival time, dose: 8.0 mg/kg/injection, schedule: Q03HX024 (ip), vehicle: saline): 102 % of control
- T/C (endpoint: mean survival time, dose: 16.0 mg/kg/injection, schedule: Q03HX008 (ip), vehicle: saline): 98 % of control
- T/C (endpoint: mean survival time, dose: 16.0 mg/kg/injection, schedule: Q03HX016 (ip), vehicle: saline): 97 % of control
- T/C (endpoint: mean survival time, dose: 16.0 mg/kg/injection, schedule: Q03HX024 (ip), vehicle: saline): 104 % of control
- T/C (endpoint: mean survival time, dose: 25.0 mg/kg/injection, schedule: Q01DX009 (ip), vehicle: saline): 103 % of control
- T/C (endpoint: mean survival time, dose: 32.0 mg/kg/injection, schedule: Q01DX005 (ip), vehicle: saline): 100 % of control
- T/C (endpoint: mean survival time, dose: 32.0 mg/kg/injection, schedule: Q03HX008 (ip), vehicle: saline): 102 % of control
- T/C (endpoint: mean survival time, dose: 32.0 mg/kg/injection, schedule: Q03HX016 (ip), vehicle: saline): 98 % of control
- T/C (endpoint: mean survival time, dose: 32.0 mg/kg/injection, schedule: Q03HX024 (ip), vehicle: saline): 107 % of control
- T/C (endpoint: mean survival time, dose: 50.0 mg/kg/injection, schedule: Q04DX003 (ip), vehicle: saline): 98 % of control
- T/C (endpoint: mean survival time, dose: 50.0 mg/kg/injection, schedule: Q04DX003 (iv), vehicle: saline): 98 % of control
- T/C (endpoint: mean survival time, dose: 64.0 mg/kg/injection, schedule: Q01DX005 (ip), vehicle: saline): 103 % of control
- T/C (endpoint: mean survival time, dose: 64.0 mg/kg/injection, schedule: Q01DX009 (ip), vehicle: saline): 97 % of control
- T/C (endpoint: mean survival time, dose: 64.0 mg/kg/injection, schedule: Q03HX008 (ip), vehicle: saline): 109 % of control
- T/C (endpoint: mean survival time, dose: 64.0 mg/kg/injection, schedule: Q03HX016 (ip), vehicle: saline): 102 % of control
- T/C (endpoint: mean survival time, dose: 64.0 mg/kg/injection, schedule: Q03HX024 (ip), vehicle: saline): 116 % of control
- T/C (endpoint: mean survival time, dose: 100.0 mg/kg/injection, schedule: Q01DX009 (ip), vehicle: saline): 120 % of control
- T/C (endpoint: mean survival time, dose: 100.0 mg/kg/injection, schedule: Q04DX003 (ip), vehicle: saline): 102 % of control
- T/C (endpoint: mean survival time, dose: 100.0 mg/kg/injection, schedule: Q04DX003 (ip), vehicle: water): 120 % of control and 105 % of control
- T/C (endpoint: mean survival time, dose: 100.0 mg/kg/injection, schedule: Q04DX003 (iv), vehicle: saline): 98 % of control
- T/C (endpoint: mean survival time, dose: 128.0 mg/kg/injection, schedule: Q01DX001 (ip), vehicle: saline): 104 % of control
- T/C (endpoint: mean survival time, dose: 128.0 mg/kg/injection, schedule: Q01DX005 (ip), vehicle: saline): 114 % of control
- T/C (endpoint: mean survival time, dose: 128.0 mg/kg/injection, schedule: Q01DX009 (ip), vehicle: saline): 122 % of control
- T/C (endpoint: mean survival time, dose: 128.0 mg/kg/injection, schedule: Q04DX003 (ip), vehicle: saline): 105 % of control
- T/C (endpoint: mean survival time, dose: 128.0 mg/kg/injection, schedule: Q08DX002 (ip), vehicle: saline): 104 % of control
- T/C (endpoint: mean survival time, dose: 200.0 mg/kg/injection, schedule: Q01DX009 (ip), vehicle: saline): 118 % of control
- T/C (endpoint: mean survival time, dose: 200.0 mg/kg/injection, schedule: Q04DX003 (ip), vehicle: saline): 108 % of control
- T/C (endpoint: mean survival time, dose: 200.0 mg/kg/injection, schedule: Q04DX003 (ip), vehicle: water): 115 % of control and 120 % of control
- T/C (endpoint: mean survival time, dose: 200.0 mg/kg/injection, schedule: Q04DX003 (iv), vehicle: saline): 101 % of control
- T/C (endpoint: mean survival time, dose: 256.0 mg/kg/injection, schedule: Q01DX001 (ip), vehicle: saline): 110 % of control
- T/C (endpoint: mean survival time, dose: 256.0 mg/kg/injection, schedule: Q01DX005 (ip), vehicle: saline): 107 % of control
- T/C (endpoint: mean survival time, dose: 256.0 mg/kg/injection, schedule: Q01DX009 (ip), vehicle: saline): 100 % of control
- T/C (endpoint: mean survival time, dose: 256.0 mg/kg/injection, schedule: Q08DX002 (ip), vehicle: saline): 106 % of control
- T/C (endpoint: mean survival time, dose: 400.0 mg/kg/injection, schedule: Q04DX003 (ip), vehicle: saline): 124 % of control
- T/C (endpoint: mean survival time, dose: 400.0 mg/kg/injection, schedule: Q04DX003 (ip), vehicle: water): 153 % of control
- T/C (endpoint: mean survival time, dose: 512.0 mg/kg/injection, schedule: Q04DX003 (ip), vehicle: saline): 159 % of control
- T/C (endpoint: mean survival time, dose: 512.0 mg/kg/injection, schedule: Q08DX002 (ip), vehicle: saline): 165 % of control
- T/C (endpoint: mean survival time, dose: 600.0 mg/kg/injection, schedule: Q04DX003 (ip), vehicle: water): 101 % of control

Compound: CC1CCC(C(C)C)C(OC(=O)N/N=C/N(C)C)C1 (stereo unspecified)
- T/C (endpoint: mean survival time, dose: 100.0 mg/kg/injection, schedule: Q01DX009 (ip), vehicle: other): 95 % of control
- T/C (endpoint: mean survival time, dose: 200.0 mg/kg/injection, schedule: Q01DX009 (ip), vehicle: other): 119 % of control

Compound: O=S1(=O)Oc2cccc3cccc1c23
- T/C [4]: 95 % of control
- T/C [5]: 102 % of control
- T/C [6]: 98 % of control
- T/C [7]: 102 % of control
- T/C [8]: 92 % of control
- T/C [9]: 103 % of control

Compound: [Cl][Pt+].[NH-]c1ccccc1C=Nc1ccccc1C=O
- T/C (endpoint: median survival time, dose: 11.5 mg/kg/injection, schedule: Q04DX003 (ip), vehicle: saline with Tween-80): 100 % of control
- T/C (endpoint: median survival time, dose: 23.0 mg/kg/injection, schedule: Q04DX003 (ip), vehicle: saline with Tween-80): 105 % of control
- T/C (endpoint: median survival time, dose: 46.0 mg/kg/injection, schedule: Q04DX003 (ip), vehicle: saline with Tween-80): 105 % of control
- T/C (endpoint: median survival time, dose: 92.0 mg/kg/injection, schedule: Q04DX003 (ip), vehicle: saline with Tween-80): 97 % of control
- T/C (endpoint: median survival time, dose: 184.0 mg/kg/injection, schedule: Q04DX003 (ip), vehicle: saline with Tween-80): 98 % of control

Compound: CCC(CCC(C)C1CCC2C3CC=C4CC(OC(=O)CCC(=O)O)CCC4(C)C3CCC12C)C(C)C (stereo unspecified)
- T/C [5]: 90 % of control
- T/C [7]: 90 % of control
- T/C [9]: 93 % of control

Compound: O=C(C1CC1)N1CCC(O)(c2ccccc2)CC1
- T/C [10]: 97 % of control
- T/C [11]: 93 % of control
- T/C [12]: 93 % of control

Compound: COc1ccc(-n2cnc3c(cnn3C3OC(CO)C(O)C3O)c2=O)cc1 (stereo unspecified)
- T/C (endpoint: median survival time, dose: 12.5 mg/kg/injection, schedule: Q01DX005 (ip), vehicle: saline): 105 % of control
- T/C (endpoint: median survival time, dose: 25.0 mg/kg/injection, schedule: Q01DX005 (ip), vehicle: saline): 102 % of control
- T/C (endpoint: median survival time, dose: 50.0 mg/kg/injection, schedule: Q01DX005 (ip), vehicle: saline): 102 % of control
- T/C (endpoint: median survival time, dose: 100.0 mg/kg/injection, schedule: Q01DX005 (ip), vehicle: saline): 105 % of control
- T/C (endpoint: median survival time, dose: 200.0 mg/kg/injection, schedule: Q01DX005 (ip), vehicle: saline): 106 % of control

Compound: O=C(O)Cc1ccc(Cl)cc1[N+](=O)[O-]
- T/C (endpoint: mean survival time, dose: 100.0 mg/kg/injection, schedule: Q01DX001 (ip), vehicle: other): 113 % of control
- T/C (endpoint: mean survival time, dose: 200.0 mg/kg/injection, schedule: Q01DX001 (ip), vehicle: other): 107 % of control
- T/C (endpoint: mean survival time, dose: 400.0 mg/kg/injection, schedule: Q01DX001 (ip), vehicle: other): 98 % of control

Compound: CC(N)C(=O)O (stereo unspecified)
- T/C [1]: 106 % of control
- T/C [2]: 112 % of control
- T/C [3]: 98 % of control

Compound: Clc1ccc(SCNc2ccccc2Cl)cc1
- T/C [10]: 100 % of control
- T/C [11]: 100 % of control
- T/C [12]: 100 % of control

Compound: O=C(N/N=C/c1ccc(O)cc1)c1ccncc1
- T/C (endpoint: mean survival time, dose: 50.0 mg/kg/injection, schedule: Q04DX002 (ip), vehicle: saline with Tween-80): 95 % of control
- T/C [10]: 91 % of control
- T/C [11]: 100 % of control
- T/C [12]: 88 % of control
